One series has as its target T1, human TrkA (Homo sapiens, UniProt P04629).
T1 construct: purchased Lifetechnologies PV3144
In words: Human TrkA inhibition assay. The format is biochemical. As to conditions: human TrkA phosphorylation inhibition, ATP 500 μmol/L. In outline:
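Human TrkA (1 nmol/L final) preincubated 15 min with compound, then FL-peptide 27 (1.5 μmol/L) and ATP (500 μmol/L) added; 120 min at 37 °C in HEPES/MgCl2/DTT buffer. Mobility-shift measurement of phosphorylated vs non-phosphorylated substrate; IC50 by logistic regression over 3-fold dilution series.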

For another series, the target named is T2, hERG channel (IKr) (Homo sapiens, UniProt Q12809).
T2 construct: expressed in transfected cells; host or cells: CHO cells
Description: hERG test (whole cell patch clamp, IKr). The conditions noted are these: CHO cells expressing hERG channel, read-out: % inhibition of tail peak current (IKr); for inhibition at 5 μmol/L: pH 7.4, 5 μmol/L of test compound. It counts as cell-based. An excerpt:
For the purpose of assessing risk of an electrocardiogram QT interval prolongation of the compound of the present invention, effects of the compound of the present invention on delayed rectifier K+ current (IKr), which plays an important role in the ventricular repolarization process, was studied using CHO cells expressing human ether-a-go-go related gene (hERG) channel.
After a cell was retained at a membrane potential of −80 mV by whole cell patch clamp method using an automated patch clamp system (QPatch; Sophion Bioscience A/S) and gave a leak potential of −50 mV, IKr induced by depolarization pulse stimulation at +20 mV for 2 seconds, and further, repolarization pulse stimulation at −50 mV for 2 seconds, was recorded. A vehicle, which is the 0.1-0.3% dimethyle sulfoxide solution in extracellular solution (NaCl: 145 mmol/L, KCl: 4 mmol/L, CaCl2: 2 mmol/L, MgCl2: 1 mmol/L, glucose: 10 mmol/L, HEPES (4-(2-hydroxyethyl)-1-piperazineethanesulfonic acid): 10 mmol/L, pH7.4), or the compound of the present invention had been dissolved at an objective concentration in the extracellular solution is applied to the cell at room temperature for 7 minutes or more. From the recording IKr, an absolute value of the tail peak current was measured based on the current value at the resting membrane potential using analysis software (QPatch assay software; Sophion Bioscience A/S). Further, the % inhibition of tail peak current for the compound of the present invention relative to the tail peak current after application of the vehicle is calculated to assess influence of the compound of the present invention on IKr.
Background: hERG is a cardiac potassium channel; its block is linked to QT prolongation.

As a reminder, the inhibition is the relative decrease from the control value, in per cent.

Where two headings read alike, the source gives them in different places. A value given as a limit tells only on which side of the number the result lay.

T1 sequence (P04629 33-796): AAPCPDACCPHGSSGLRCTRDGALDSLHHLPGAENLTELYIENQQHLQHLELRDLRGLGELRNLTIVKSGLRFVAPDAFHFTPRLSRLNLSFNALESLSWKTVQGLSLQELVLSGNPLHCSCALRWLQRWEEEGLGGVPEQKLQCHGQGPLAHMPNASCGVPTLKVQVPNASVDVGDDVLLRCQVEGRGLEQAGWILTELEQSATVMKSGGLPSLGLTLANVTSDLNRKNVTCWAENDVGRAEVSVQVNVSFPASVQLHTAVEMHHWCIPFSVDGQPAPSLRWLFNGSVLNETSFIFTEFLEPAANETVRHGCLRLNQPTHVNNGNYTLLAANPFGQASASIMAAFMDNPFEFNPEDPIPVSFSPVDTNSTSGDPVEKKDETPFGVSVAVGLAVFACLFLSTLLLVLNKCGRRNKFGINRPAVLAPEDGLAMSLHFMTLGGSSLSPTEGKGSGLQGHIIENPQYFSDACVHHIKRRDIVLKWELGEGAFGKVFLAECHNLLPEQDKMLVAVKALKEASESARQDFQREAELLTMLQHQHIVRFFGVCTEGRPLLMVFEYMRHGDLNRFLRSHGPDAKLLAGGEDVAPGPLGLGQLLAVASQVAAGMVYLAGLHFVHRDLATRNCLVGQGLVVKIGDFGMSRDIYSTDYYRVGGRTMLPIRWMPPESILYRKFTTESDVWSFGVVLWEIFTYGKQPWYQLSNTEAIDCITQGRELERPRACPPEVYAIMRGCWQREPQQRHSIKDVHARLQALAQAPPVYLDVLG
T2 sequence (Q12809 whole entry): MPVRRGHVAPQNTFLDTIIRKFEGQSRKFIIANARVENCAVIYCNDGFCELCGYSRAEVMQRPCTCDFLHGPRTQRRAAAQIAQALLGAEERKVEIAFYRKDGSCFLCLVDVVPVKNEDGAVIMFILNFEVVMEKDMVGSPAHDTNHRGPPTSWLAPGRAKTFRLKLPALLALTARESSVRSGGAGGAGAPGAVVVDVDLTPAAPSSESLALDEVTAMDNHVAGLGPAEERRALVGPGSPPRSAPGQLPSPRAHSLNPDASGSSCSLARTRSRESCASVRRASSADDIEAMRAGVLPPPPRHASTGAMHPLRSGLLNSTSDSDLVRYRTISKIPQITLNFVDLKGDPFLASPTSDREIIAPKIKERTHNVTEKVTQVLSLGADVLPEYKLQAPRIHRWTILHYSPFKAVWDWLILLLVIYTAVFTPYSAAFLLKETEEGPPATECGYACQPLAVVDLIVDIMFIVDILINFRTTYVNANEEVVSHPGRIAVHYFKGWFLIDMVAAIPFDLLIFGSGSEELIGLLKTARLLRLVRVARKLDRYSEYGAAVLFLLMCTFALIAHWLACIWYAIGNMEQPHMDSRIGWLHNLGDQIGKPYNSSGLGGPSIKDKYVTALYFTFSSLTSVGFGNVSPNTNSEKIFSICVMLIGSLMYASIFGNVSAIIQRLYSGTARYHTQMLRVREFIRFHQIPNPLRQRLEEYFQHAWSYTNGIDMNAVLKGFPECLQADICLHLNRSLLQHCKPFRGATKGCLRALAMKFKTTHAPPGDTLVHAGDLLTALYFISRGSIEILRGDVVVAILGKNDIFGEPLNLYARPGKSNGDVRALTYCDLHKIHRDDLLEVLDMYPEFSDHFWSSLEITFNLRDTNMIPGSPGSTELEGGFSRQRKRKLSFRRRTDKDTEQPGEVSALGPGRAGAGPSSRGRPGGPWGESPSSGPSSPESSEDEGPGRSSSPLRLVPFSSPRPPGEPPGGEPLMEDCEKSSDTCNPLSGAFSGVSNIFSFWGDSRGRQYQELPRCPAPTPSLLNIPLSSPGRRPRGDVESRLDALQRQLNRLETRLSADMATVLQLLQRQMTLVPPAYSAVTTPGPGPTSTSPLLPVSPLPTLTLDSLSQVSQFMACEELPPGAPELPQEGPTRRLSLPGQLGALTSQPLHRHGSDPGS

Consider `CCOc1ncc(-c2nn(-c3ccccc3)c(NC(=O)N[C@@H]3C[C@@H](CCOC)N(C)[C@H]3c3ccnc(F)c3)c2C)cn1` [Compound I-93], for which, at human TrkA (read-out: IC50_nM), the IC50 was less than 100 nM. Moreover, at hERG channel (IKr), the inhibition at 5 μmol/L was determined as 11.6%.

On to `COCC[C@@H]1C[C@@H](NC(=O)Nc2c(C)c(-c3cnc(OC)nc3)nn2-c2ccccc2)[C@H](c2ccnc(F)c2)N1C` [Compound I-92], for which, at human TrkA (read-out: IC50 value), the IC50 worked out at 0.74 nM. Moreover, at hERG channel (IKr) (pH 7.4, 30 μmol/L of test compound), the inhibition at 30 μmol/L turned out to be 19.3%.

Regarding `CCN1CCC(NC(=O)c2cc(-c3nn(-c4ccccc4)c(NC(=O)N[C@@H]4C[C@@H](CCOC)N(C)[C@H]4c4ccc(F)c(F)c4)c3C)ccn2)CC1` [Compound I-66], the IC50 at human TrkA (read-out: IC50_nM) is less than 100 nM. For the same compound, the inhibition at 5 μmol/L on hERG channel (IKr) was 22.6%.

On to `CCOc1ncc(-c2nn(-c3ccccc3)c(NC(=O)N[C@@H]3C[C@@H](CCOC)N(C)[C@H]3c3ccc(F)c(F)c3)c2C)cn1` [Compound I-174], for which, at human TrkA (read-out: IC50_nM), the IC50 was less than 100 nM. Also, the inhibition at 10 μmol/L on hERG channel (IKr) (pH 7.4, 10 μmol/L of test compound) came out at 33.6%.

As for `COCCN1C[C@@H](NC(=O)Nc2c(C)c(-c3cnc4c(c3)oc(=O)n4C)nn2-c2ccccc2)[C@H](c2ccccc2)C1` (racemic) [Compound I-76], at human TrkA (read-out: IC50 value), the IC50 was 3.1 nM.

Regarding `COCCN1C[C@@H](NC(=O)Nc2c(C)c(-c3ccc4c(cnn4C)c3)nn2-c2ccccc2)[C@H](c2ccccc2)C1` (racemic) [Compound I-3], the IC50 at human TrkA (read-out: IC50_nM) is less than 100 nM.

As for `COCC[C@@H]1C[C@@H](NC(=O)Nc2c(C)c(-c3cc(C(=O)NOC)c(=O)n(C)c3)nn2-c2ccccc2)[C@H](c2ccccc2)C1` [Compound I-153], on human TrkA (read-out: IC50_nM), the IC50 was less than 100 nM.

Consider `COCCN1C[C@@H](NC(=O)Nc2c(C)c(-c3cnc(OC)c(C(=O)NO)c3)nn2-c2ccccc2)[C@H](c2ccccc2)C1` (racemic) [Compound I-138], for which the IC50 at human TrkA (read-out: IC50_nM) was less than 100 nM.

On to `COCC[C@@H]1C[C@@H](NC(=O)Nc2c(C)c(-c3cnc4c(cnn4C)c3)nn2-c2ccccc2)[C@H](c2ccccc2)C1` [Compound I-102], for which, on human TrkA (read-out: IC50 value), the IC50 is 0.66 nM.

As to `COCCN1C[C@@H](NC(=O)Nc2c(C)c(-c3ccnc(C(=O)N[C@H]4CC[C@@H](O)CC4)c3)nn2-c2ccccc2)[C@H](c2ccccc2)C1` [Compound I-85], the IC50 at human TrkA (read-out: IC50_nM) is less than 100 nM.

For `CNC(=O)c1cc(-c2nn(-c3ccccc3)c(NC(=O)N[C@@H]3CN(CCOC)C[C@H]3c3ccccc3)c2C)cn(CCOC)c1=O` (racemic) [Compound I-127], on human TrkA (read-out: IC50_nM), the IC50 is less than 100 nM.

Take `COCCN1C[C@@H](NC(=O)Nc2c(C)c(-c3cnn(C)c3)nn2-c2ccccc2)[C@H](c2cc(F)ncc2F)C1` (racemic) [Compound I-98]: the IC50 on human TrkA (read-out: IC50_nM) was less than 100 nM.

Turning to `COCCN1C[C@@H](NC(=O)Nc2c(C)c(-c3cnc(C)nc3)nn2-c2ccccc2)[C@H](c2cnc(F)c(F)c2)C1` (racemic) [Compound I-60], on human TrkA (read-out: IC50_nM), the IC50 is less than 100 nM.

Turning to `COCCN1C[C@@H](NC(=O)Nc2c(C)c(-c3cc(C(=O)NC[C@@H](C)O)c(=O)n(C)c3)nn2-c2ccccc2)[C@H](c2ccccc2)C1` (racemic) [Compound I-114], the IC50 at human TrkA (read-out: IC50_nM) was less than 100 nM.

`COCC[C@@H]1C[C@@H](NC(=O)Nc2c(C)c(-c3cc(C(=O)NO)c(=O)n(C)c3)nn2-c2ccccc2)[C@H](c2ccccc2)C1` [Compound I-120]: the IC50 at human TrkA (read-out: IC50_nM) is less than 100 nM.

`COCCN1C[C@@H](NC(=O)Nc2c(C)c(-c3cncc(N=S(C)(C)=O)c3)nn2-c2ccccc2)[C@H](c2ccccc2)C1` (racemic) [Compound I-106]: the IC50 at human TrkA (read-out: IC50_nM) is less than 100 nM.

For `COCCN1C[C@@H](NC(=O)Nc2c(C)c(-c3ccnc(C(=O)NC4CCS(=O)(=O)CC4)c3)nn2-c2ccccc2)[C@H](c2ccccc2)C1` (racemic) [Compound I-73], the IC50 at human TrkA (read-out: IC50_nM) was less than 100 nM.

As to `COCCN1C[C@@H](NC(=O)Nc2c(C)c(-c3ccnc(C(=O)NC[C@H](C)O)c3)nn2-c2ccccc2)[C@H](c2ccccc2)C1` [Compound I-88], on human TrkA (read-out: IC50_nM), the IC50 is less than 100 nM.

Consider `COCCN1C[C@@H](NC(=O)Nc2c(C)c(-c3cc(C(=O)NC4CCOCC4)c(=O)n(C)c3)nn2-c2ccccc2)[C@H](c2ccccc2)C1` (racemic) [Compound I-56], for which the IC50 at human TrkA (read-out: IC50 value) worked out at 0.98 nM.

As to `COCC[C@@H]1C[C@@H](NC(=O)Nc2c(C)c(-c3cc(C)c(=O)n(C)c3)nn2-c2ccccc2)[C@H](c2ccccc2)C1` [Compound I-103], the IC50 on human TrkA (read-out: IC50_nM) was less than 100 nM.

As to `COCCN1C[C@@H](NC(=O)Nc2c(C)c(-c3ccc4c(cnn4C)c3)nn2-c2ccccc2)[C@H](c2ccc(F)c(F)c2)C1` [Compound I-6], the IC50 at human TrkA (read-out: IC50_nM) is less than 100 nM.

Turning to `COCCN1C[C@@H](NC(=O)Nc2c(C)c(-c3ccc(C(N)=O)nc3)nn2-c2ccccc2)[C@H](c2ccccc2)C1` (racemic) [Compound I-42], the IC50 on human TrkA (read-out: IC50_nM) was less than 100 nM.

Regarding `COCC[C@@H]1C[C@@H](NC(=O)Nc2c(C)c(-c3ccc4c(cnn4C)c3)nn2-c2ccccc2)[C@H](c2ccc(F)c(F)c2)N1C` [Compound I-9], the IC50 on human TrkA (read-out: IC50_nM) is less than 100 nM.

In the case of `COCCN1C[C@@H](NC(=O)Nc2c(C)c(-c3cc(C(=O)NC4CCOCC4)c(=O)n(CCOC)c3)nn2-c2ccccc2)[C@H](c2ccccc2)C1` (racemic) [Compound I-136], on human TrkA (read-out: IC50_nM), the IC50 is less than 100 nM.

In the case of `COCCN1C[C@@H](NC(=O)Nc2c(C)c(-c3cnc4c(c3)c(OC)nn4C)nn2-c2ccccc2)[C@H](c2ccccc2)C1` (racemic) [Compound I-95], the IC50 on human TrkA (read-out: IC50_nM) was less than 100 nM.

On to `COCCN1C[C@@H](NC(=O)Nc2c(C)c(-c3cnc4nccn4c3)nn2-c2ccccc2)[C@H](c2ccccc2)C1` (racemic) [Compound I-30], for which the IC50 on human TrkA (read-out: IC50_nM) was less than 100 nM.

Regarding `COCCN1C[C@H](NC(=O)Nc2c(C)c(-c3cnc4c(cnn4C)c3)nn2-c2ccccc2)[C@@H](c2ccnc(F)c2)C1` [Compound I-160], the IC50 on human TrkA (read-out: IC50_nM) is more than 1000 nM.

Regarding `COCCN1C[C@@H](NC(=O)Nc2c(C)c(-c3cc(C(=O)NC(C)(C)CO)c(=O)n(C)c3)nn2-c2ccccc2)[C@H](c2ccccc2)C1` (racemic) [Compound I-115], the IC50 on human TrkA (read-out: IC50_nM) is less than 100 nM.

As for `COCCN1C[C@@H](NC(=O)Nc2c(C)c(-c3cnn(C)c3)nn2-c2ccccc2)[C@H](c2cnc(Cl)s2)C1` (racemic) [Compound I-62], the IC50 on human TrkA (read-out: IC50_nM) is less than 100 nM.

For the compound `CNC(=O)c1cc(-c2nn(-c3ccccc3)c(NC(=O)N[C@@H]3CN(CCOC)C[C@H]3c3ccccc3)c2C)cnc1OCCOC` (racemic) [Compound I-124], the IC50 on human TrkA (read-out: IC50_nM) is less than 100 nM.

On to `COCC[C@@H]1C[C@@H](NC(=O)Nc2c(C)c(-c3cnc4c(c3)nnn4C)nn2-c2ccccc2)[C@H](c2ccnc(F)c2)N1C` [Compound I-171], for which, at human TrkA (read-out: IC50_nM), the IC50 was less than 100 nM.

Turning to `CNC(=O)c1cc(-c2nn(-c3ccccc3)c(NC(=O)N[C@@H]3C[C@@H](CCOC)N(C)[C@H]3c3ccnc(F)c3)c2C)cnc1OC` [Compound I-176], on human TrkA (read-out: IC50_nM), the IC50 was less than 100 nM.

As to `COCCN1C[C@@H](NC(=O)Nc2c(C)c(-c3cnc(OC)c(C(=O)N[C@H]4CCOC4)c3)nn2-c2ccccc2)[C@H](c2ccccc2)C1` [Compound I-80], the IC50 on human TrkA (read-out: IC50_nM) is less than 100 nM.

Turning to `CCOc1ncc(-c2nn(-c3ccccc3)c(NC(=O)N[C@@H]3CN(CCOC)C[C@H]3c3ccccc3)c2C)cc1C(=O)NC` (racemic) [Compound I-122], the IC50 on human TrkA (read-out: IC50_nM) is less than 100 nM.

As for `COCCN1C[C@@H](NC(=O)Nc2c(C)c(-c3cnc4ccnn4c3)nn2-c2ccccc2)[C@H](c2ccccc2)C1` (racemic) [Compound I-40], the IC50 at human TrkA (read-out: IC50_nM) is less than 100 nM.

With `COCCN1C[C@@H](NC(=O)Nc2c(C)c(-c3cnn(C)c3)nn2-c2ccccc2)[C@H](c2cc(F)nc(F)c2)C1` (racemic) [Compound I-7], the IC50 on human TrkA (read-out: IC50_nM) is less than 100 nM.

As to `CNC(=O)c1cc(-c2nn(-c3ccccc3)c(NC(=O)N[C@@H]3CN(CCOC)C[C@H]3c3ccccc3)c2C)cnc1OCF` (racemic) [Compound I-126], on human TrkA (read-out: IC50_nM), the IC50 is less than 100 nM.

`COCCN1C[C@@H](NC(=O)Nc2c(C)c(-c3cc(C(=O)NC4CCCCC4)c(=O)n(C)c3)nn2-c2ccccc2)[C@H](c2ccccc2)C1` (racemic) [Compound I-108]: the IC50 at human TrkA (read-out: IC50_nM) was less than 100 nM.

Consider `CNC(=O)c1cc(-c2nn(-c3ccccc3)c(NC(=O)N[C@@H]3CN(CCOC)C[C@H]3c3ccccc3)c2C)cnc1OC` (racemic) [Compound I-53], for which the IC50 at human TrkA (read-out: IC50_nM) was less than 100 nM.

Take `CCN1CCC(NC(=O)c2cc(-c3nn(-c4ccccc4)c(NC(=O)N[C@@H]4CN(CCOC)C[C@H]4c4ccccc4)c3C)ccn2)CC1` (racemic) [Compound I-43]: the IC50 on human TrkA (read-out: IC50_nM) was less than 100 nM.

For `COCC[C@@H]1C[C@@H](NC(=O)Nc2c(C)c(-c3cnc4c(cnn4C)c3)nn2-c2ccccc2)[C@H](c2ccnc(F)c2)N1C` [Compound I-94], at human TrkA (read-out: IC50_nM), the IC50 is less than 100 nM.

The values above are taken from patent publication US10533006B2, “Nitrogen-containing heterocycle and carbocycle derivatives having TrkA inhibitory activity” (Shionogi & Co., Ltd., priority 2016, dated 2020).
